Consider 4 molecules from patent US20050008687A1, “Metal-porphyrin-complex-embedded liposomes, production process thereof, and medicines making use of the same” (Makoto Yuasa, priority 2003, published 2005).

Structures are written as SMILES. Read-outs that look alike come from different tables or passages of the source.

A short description of assay [1]: SOD activity (O2-. scavenging) by the stopped-flow method. The assay is classed as biochemical. As to conditions: Table 8. As for the experimental part:
The SOD activity (in other words, O2^−. scavenging activity) of each Pr-embedded liposome was evaluated by the stopped-flow method proposed by Riley et al. [D. P. Riley, W. L. Rivers, and R. H. Weiss, Anal. Biochem., 196, 344 (1991)]. Specifically, the evaluation was conducted as will be described hereinafter. At 36° C., a solution of potassium superoxide as an O2^−. production source in dimethylsulfoxide and one of 60 mM HEPES/HEPESNa buffered solutions (pH 8.1), which contained one of the Pr-embedded liposomes at various concentrations, were promptly mixed, and the decay in absorbance at 245 nm due to O2^−. (the decay curve of O2^−. scavenging reaction) was measured with time. From the decay curve, a “ln (absorbance)-versus-time” relationship was determined, and further, an apparent rate constant was calculated from the slope of the relationship. From the slope of the “concentration of metalloporphyrin complex-versus-apparent rate constant” relationship, the rate constant (Kcat) of the O2^−. scavenging reaction was finally determined. As a reference, ion complexes (MnT4 MPyP+1SAS and MnT4 MPyP+4SAS) were also evaluated likewise in SOD activity.
Various metalloporphyrin complexes, which represent Pr-embedded liposomes, were compared in SOD activity. […] Incidentally, the samples were prepared and measured as in Examples 19 and 20.

Assay [2] is described as follows: SOD activity (O2-. scavenging) by the cytochrome c method. Format: biochemical. As to conditions: Table 8. The method, then:
The SOD activity (in other words, O2^−. scavenging activity) of each Pr-embedded liposome was evaluated by the cytochrome c method proposed by Mccord and Fridovich or Butler et al. [(1) J. M. Mccord and I. Fridovich, J. Biol. Chem., 244, 6049 (1969) and (2) J. Butler, W. H. Kopenol, E. Margoliash, J. Biol. Chem., 257, 10747 (1982)]. Specifically, the evaluation was conducted as will be described hereinafter. Solutions (Solutions A) of each Pr-embedded liposome were prepared at five or more concentration levels of from 0 to 1,000 μM in terms of the concentration of the metalloporphyrin. […] With the resultant mixture, a 7 μg/mL aqueous catalase solution (0.1 mL) and a 25 U/mL aqueous xanthine oxidase (XOD) solution (0.3 mL) were promptly mixed, and UV-vis was measured with time at 550 nm (absorption peak based on the formation of ferrocytochome c)(the final concentrations of the respective components in the test solution were as follows: the metal porphyrin complex, 0 to 100 SM; xanthine, 0.05 mM; XOD, 2.5U/mL; cytochrome c, 10 μM; catalase, 0.23 μg/mL). […] Finally, the concentration (IC50) of each metalloporphyrin complex at IC=50% was determined from the concentration of metalloporphyrin-versus-IC” relationship, and the IC50 was used as an index of the SOSD-activating effect of the metalloporphyrin complex (smaller IC50 indicates higher SOD activity). […]

For assay [3] the following is noted: literature value reported by Ohse, Kawakami et al.; Table 7; cited from earlier work.
For assay [4] the following is noted: literature value reported by Fridovich et al.; Table 6; cited from earlier work.
The test system of assay [5] is mouse lung cancer cells [Lewis Lung Carcinoma (LLC)]. The experiment in a line: Anticancer characteristic test: cytotoxicity test (apoptosis test) by the Alamar Blue technique. The assay is classed as cell-based. As to conditions: FIG. 3. As for the experimental part: Anticancer characteristics of a Pr-embedded liposome according to the present invention were examined by a cytotoxicity test (apoptosis test) making use of the Alamar Blue technique.
Employed were the FeT2 MPyP+4SAS-embedded DMPC liposome system (Invention Product 4, FeT2 MPyP concentrations: 0, 12.5, 25, 50, 100 μM) as a test sample and its corresponding cationic metalloporphyrin complex (FeT2 MPyP) and ion complex system (FeT2 MPyP+4SAS) as reference samples. As cells, on the other hand, mouse lung cancer cells [Lewis Lung Carcinoma (LLC), Riken Gene Bank] were used.
In the test, the mouse lung cancer cells were cultured in DMEM medium with 10% FBS added therein. Subsequent to determination of the cell count and adjustment of the cell concentration, the resulting cell suspension was added to the individual wells of a 96-well plate (100 μL/well, cell count: 1×10^4 cells/well), followed by incubation for 24 hours in a carbon dioxide incubator (CO2:5%). After the medium was removed from the plate, sample solutions of the respective concentrations (100 μL/well, sample concentrations: 0 to 100 μM), said sample solutions having had been prepared in advance, were added, followed by further incubation for 24 hours in the CO2 incubator.
An Alamar Blue solution, which had been sterilized by filtration, was added at 10 μL/well, followed by incubation for 5 hours. Subsequently, absorbance measurements (measurement wavelength: 570 nm, and reference wavelength: 600 nm) were conducted by using a microplate reader.
Anticancer characteristics of Pr-embedded liposomes according to the present invention were examined by a cytotoxicity test (apoptosis test) making use of the Alamar Blue technique as in Example 15.
As test samples, various Pr-embedded liposomes were used (metalloporphyrin complex concentrations: 0, 12.5, 25, 50, 100 μM). As reference samples, on the other hand, the components of the Pr-embedded liposomes, that is, the metalloporphyrin complexes (concentrations: 0, 12.5, 25, 50, 100 μM) and liposomes (concentrations: 2500, 5000, 10000, 20000 μM) were employed (the concentrations of both of the components were set corresponding to the concentrations of the Pr-embedded liposomes).
Provided as comparative samples were cisplatin (CDDP; concentrations: 0, 10, 20, 40, 80 μM) and mitomycin C (MMC; concentrations: 0, 7.5, 15, 30, 60 μM), which are anticancer agents employed at present. A test was conducted as in Example 15, and the following results were obtained.
Anticancer characteristics of pH-sensitive, Pr-embedded liposomes were examined by a cytotoxicity test (apoptosis test) making use of the Alamar Blue technique as in Example 15. […]
In general terms: The colour change of resazurin is a common sign of viable cells or microbes.

Consider `C[n+]1ccc(-c2c3nc(c(-c4cc[n+](C)cc4)c4ccc([n-]4)c(-c4cc[n+](C)cc4)c4nc(c(-c5cc[n+](C)cc5)c5ccc2[n-]5)C=C4)C=C3)cc1.[Mn+2]` [MnT4MPyP, manganese[5,10,15,20-tetrakis(4-methylpyridyl)porphyrin]], for which the Kcat in assay [1] and in assay [3] was 2.2e+07 M⁻¹ s⁻¹ in each case. Besides, the IC50 (in general, the point on the concentration scale where inhibition reaches its midpoint) in assay [2] is 0.74 µM; in assay [4], 0.7 µM.

Consider `C[n+]1ccccc1-c1c2nc(c(-c3cccc[n+]3C)c3ccc([n-]3)c(-c3cccc[n+]3C)c3nc(c(-c4cccc[n+]4C)c4ccc1[n-]4)C=C3)C=C2.[Fe+2]` [FeT2 MPyP, iron[5,10,15,20-tetrakis(2-methylpyridyl)porphyrin]], for which the “viability of LLC versus added concentration” value in assay [5] is given as “dropped as the added concentration increased”. Also, the “viability of LLC compared with CDDP and MMC” value in assay [5] (FeT2 MPyP concentrations of 25 μM and higher) was “lower than those in the cases of CDDP and MMC”.

With `[NH2][Pt]([NH2])([Cl])[Cl]` [CDDP, cisplatin, reference compound], the “viability of LLC versus added concentration” value in assay [5] is recorded as “dropped as the added concentration increased”.

Turning to `CO[C@@]12[C@H](COC(N)=O)C3=C(C(=O)C(C)=C(N)C3=O)N1C[C@@H]1N[C@@H]12` [MMC, mitomycin C, reference compound], the “viability of LLC versus added concentration” value in assay [5] was “dropped as the added concentration increased”.
